Source: patent US4145430A, “Beta-lactam compounds, preparation and use” (Beecham Group Limited, priority 1977, dated 1979)

Legend:
[1] = Stability when free of solvent; format: physicochemical
Description: The compound of the formula (V) tends to polymerise when free of solvent at room temperature so that it must either be stored in solution (optionally with hydroquinone) or at a low temperature. Preferably the compound of the formula (V) is used shortly after its preparation.
For determination of spectroscopic and biological properties aliquots of the toluene solution were treated in a manner similar to that described above for measurement of the nmr spectrum. The title compound was characterised by the following spectroscopic properties. λmax (EtOH): 277.5 nm. .nu.max (CHCl3): 1797 (β-lactam C= O ), 1670 and 1640 (C=C)cm^-1. δ (CDCl3): 3.36 (d, J 17Hz, 1H, C(6)H), 3.63 (dd, J 17, 2Hz, 1H, C(6)H), 5.22 (dd, J 10.5, 1.0Hz, 1H, olefinic H), 5.49 (dd, J 16, 1.0Hz, 1H, olefinic H), 5.80 (s, 2H, C(5)H and C(2)H), 6.10 (dd, J 16, 10.5Hz, 1H, olefinic H).

[2] = biological target: β-lactamase from Proteus mirabilis C889; test: β-lactamase inhibition I50; format: biochemical
Description: (§1) The I50 values obtained for the product of this example against certain common gram positive and gram negative bacteria were as follows:
(§2) The compound from Example 1 was a potent inhibitor of β-lactamase enzymes as illustrated in the following Table. I50 values were determined using the process described in Belgium Pat. No. 827,926.

[3] = biological target: T1, β-lactamase from E. coli JT4 (Escherichia coli, UniProt P62593); test: β-lactamase inhibition I50; format: biochemical
T1 construct: host or cells: E. coli JT4 (the producing strain)
Description: as §1, §2

[4] = biological target: T2, β-lactamase from Enterobacter cloacae P99 (Enterobacter cloacae, UniProt P05364); test: β-lactamase inhibition I50; format: biochemical
T2 construct: host or cells: Enterobacter cloacae P99 (the producing strain)
Description: as §1, §2

[5] = biological target: β-lactamase from Pseudomonas aeruginosa A; test: β-lactamase inhibition I50; format: biochemical
Description: as §2

[6] = biological target: T3, β-lactamase from Ps. aeruginosa Dalgleish (Pseudomonas aeruginosa, UniProt P16897); test: β-lactamase inhibition I50; format: biochemical
T3 construct: host or cells: Pseudomonas aeruginosa Dalgleish (the producing strain)
Description: as §2

[7] = biological target: lactamase from Ps. aeruginosa; test: β-lactamase inhibition I50; format: biochemical; design: unit not given here
Description: The I50 values obtained for the product of this example against certain common gram positive and gram negative bacteria were as follows: […]

[8] = system: Candida albicans BRL 1003; test: Antifungal activity, paper tape on seeded blood agar base plate; format: cell-based; conditions: BRL1003; loading of 250 μg on paper tape, Candida albicans BRL 1003, 28° C., 24 hours; read-out: zone of inhibition diameter
Description: The Z-isomer is able to inhibit the growth of Candida albicans. Thus, a loading of 250 μg of the Z-isomer on a paper tape which was contacted with a blood agar base plate seeded with Candida albicans BRL 1003 and incubated at 28° C. for 24 hours produced a zone of inhibition with diameter 22.1 mm.

T2 sequence (P05364 21-381): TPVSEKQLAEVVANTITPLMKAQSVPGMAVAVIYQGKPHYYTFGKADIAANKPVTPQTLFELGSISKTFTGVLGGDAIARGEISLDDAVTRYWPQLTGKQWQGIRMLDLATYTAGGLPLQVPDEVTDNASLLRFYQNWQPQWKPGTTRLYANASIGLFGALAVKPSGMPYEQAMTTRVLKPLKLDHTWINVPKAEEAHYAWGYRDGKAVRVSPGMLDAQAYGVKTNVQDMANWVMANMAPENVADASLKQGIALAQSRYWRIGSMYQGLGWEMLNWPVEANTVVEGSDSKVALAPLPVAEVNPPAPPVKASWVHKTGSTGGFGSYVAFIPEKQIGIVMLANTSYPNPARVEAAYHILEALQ
T1 sequence (P62593 24-286 limits assumed): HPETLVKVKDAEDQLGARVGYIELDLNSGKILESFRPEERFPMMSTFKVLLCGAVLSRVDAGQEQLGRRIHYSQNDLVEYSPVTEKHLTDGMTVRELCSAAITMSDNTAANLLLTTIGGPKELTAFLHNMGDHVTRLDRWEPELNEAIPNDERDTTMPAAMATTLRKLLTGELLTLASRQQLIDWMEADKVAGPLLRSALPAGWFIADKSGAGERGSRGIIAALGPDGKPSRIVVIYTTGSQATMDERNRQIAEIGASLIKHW
T3 sequence (P16897 18-288): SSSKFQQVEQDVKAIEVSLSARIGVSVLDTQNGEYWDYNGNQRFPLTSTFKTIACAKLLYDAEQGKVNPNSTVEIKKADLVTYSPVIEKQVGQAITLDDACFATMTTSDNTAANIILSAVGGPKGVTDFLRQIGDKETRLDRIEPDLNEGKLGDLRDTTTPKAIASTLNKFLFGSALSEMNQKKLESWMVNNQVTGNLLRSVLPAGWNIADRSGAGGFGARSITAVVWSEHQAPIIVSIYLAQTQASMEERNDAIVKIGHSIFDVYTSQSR

Structure (SMILES)	stability when free of solvent [1]	I50 [2] [µg/mL]	IC50 [3] [µM]	IC50 ([4]; β-lactamase from Enterobacter cloacae P99) [µM]	I50 [5] [µg/mL]	IC50 [6] [µM]	IC50 ([4]; lactamase from Enterobacter cloacae P 99) [µM]	I50 [7]	zone of inhibition at 250 µg/disc [8] [mm]
C=CC1=CN2C(=O)C[C@H]2O1 [Example 1, (5R)-7-oxo-3-vinyl-4-oxa-1-azabicyclo[3.2.0]hept-2-ene]	readily polymerises	0.058	0.408	0.19	0.06	0.292	–	–	–
CC=C1CN2C(=O)C[C@H]2O1 [Example 4, (5R)-3-ethylidene-4-oxa-1-azabicyclo[3.2.0]heptan-7-one]	–	1.6	1.58	–	–	–	2.01	0.86	–
C/C=C1/CN2C(=O)C[C@H]2O1 [Z-isomer, Z-(5R)-3-ethylidene-4-oxa-1-azabicyclo[3.2.0]heptan-7-one]	–	–	–	–	–	–	–	–	22.1
